Source: publication PMC8632988, “Inhibition of SYK and cSrc kinases can protect bone and cartilage in preclinical models of osteoarthritis and rheumatoid arthritis” (Scientific Reports, 2021)
Like-named read-outs stand apart in the source and are kept apart here.

How the values were obtained:
Assay in all cases: Kinase selectivity profile assay
Assay type in all cases: biochemical
[1] = target: T1, RSK4 (Homo sapiens, UniProt Q9UK32); details: 500 nM; relative to DMSO; read-out: Residual enzymatic activity
T1 construct: purchased Reaction Biology Corporation
Outline: (§1)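 Radiometric kinase assay run by a standard protocol. Unbound phosphate was removed by washing filters in phosphoric acid, and product radioactivity gave percent remaining kinase activity versus DMSO vehicle reactions. Run in duplicate.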

[2] = target: T2, MELK (Homo sapiens, UniProt Q14680); details: 500 nM; relative to DMSO; read-out: Residual enzymatic activity
T2 construct: purchased Reaction Biology Corporation
Outline: as §1

[3] = target: T3, CDK9/cyclin T1 (Homo sapiens, UniProt P50750); details: 500 nM; relative to DMSO; read-out: Residual enzymatic activity
T3 construct: purchased Reaction Biology Corporation
Outline: as §1

[4] = target: T4, IKKb/IKBKB (Homo sapiens, UniProt O14920); details: 500 nM; relative to DMSO; read-out: Residual enzymatic activity
T4 construct: purchased Reaction Biology Corporation
Outline: as §1

[5] = target: T5, P38b/MAPK11 (Homo sapiens, UniProt Q15759); details: 500 nM; relative to DMSO; read-out: Residual enzymatic activity
T5 construct: purchased Reaction Biology Corporation
Outline: as §1

[6] = target: T6, P38g (Homo sapiens, UniProt P53778); details: 500 nM; relative to DMSO; read-out: Residual enzymatic activity
T6 construct: purchased Reaction Biology Corporation
Outline: as §1

[7] = target: T7, CDK4/cyclin D1 (Homo sapiens, UniProt P11802); details: read-out: Residual enzymatic activity
T7 construct: purchased Reaction Biology Corporation
Outline: as §1

[8] = target: T8, CK1g1 (Homo sapiens, UniProt Q9HCP0); details: 500 nM; relative to DMSO; read-out: Residual enzymatic activity
T8 construct: purchased Reaction Biology Corporation
Outline: as §1

[9] = target: T9, MLK2/MAP3K10 (Homo sapiens, UniProt Q02779); details: for remaining activity at 0.5 µM: 500 nM, relative to DMSO, read-out: Residual enzymatic activity
T9 construct: purchased Reaction Biology Corporation (assay service)
T9 sequence (Q02779 whole entry): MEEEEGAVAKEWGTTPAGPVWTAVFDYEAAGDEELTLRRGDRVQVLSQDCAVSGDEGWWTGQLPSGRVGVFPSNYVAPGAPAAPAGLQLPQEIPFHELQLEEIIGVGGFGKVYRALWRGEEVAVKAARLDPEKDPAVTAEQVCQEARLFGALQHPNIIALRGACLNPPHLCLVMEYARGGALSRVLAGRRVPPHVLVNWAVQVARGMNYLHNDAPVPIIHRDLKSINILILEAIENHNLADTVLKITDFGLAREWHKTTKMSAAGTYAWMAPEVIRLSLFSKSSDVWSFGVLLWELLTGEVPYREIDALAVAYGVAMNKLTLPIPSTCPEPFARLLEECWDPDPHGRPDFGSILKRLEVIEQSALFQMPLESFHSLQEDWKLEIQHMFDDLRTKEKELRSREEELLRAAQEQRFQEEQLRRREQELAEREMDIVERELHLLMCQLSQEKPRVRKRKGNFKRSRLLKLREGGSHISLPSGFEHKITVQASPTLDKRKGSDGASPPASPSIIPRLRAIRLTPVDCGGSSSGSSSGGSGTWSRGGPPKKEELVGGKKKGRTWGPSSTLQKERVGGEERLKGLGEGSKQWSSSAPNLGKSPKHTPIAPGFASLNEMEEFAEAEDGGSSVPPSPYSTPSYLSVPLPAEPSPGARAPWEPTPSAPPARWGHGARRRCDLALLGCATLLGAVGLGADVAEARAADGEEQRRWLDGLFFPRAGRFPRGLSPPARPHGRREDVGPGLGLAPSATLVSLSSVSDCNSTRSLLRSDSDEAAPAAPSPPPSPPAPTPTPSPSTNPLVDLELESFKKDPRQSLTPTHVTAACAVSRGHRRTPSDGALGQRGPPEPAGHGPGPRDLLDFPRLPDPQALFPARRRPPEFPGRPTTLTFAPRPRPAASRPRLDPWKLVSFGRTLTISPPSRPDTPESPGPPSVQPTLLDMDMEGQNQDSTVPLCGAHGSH
Outline: as §1

[10] = target: T10, STK33 (Homo sapiens, UniProt Q9BYT3); details: 500 nM; relative to DMSO; read-out: Residual enzymatic activity
T10 construct: purchased Reaction Biology Corporation
Outline: as §1

[11] = target: T11, PLK3 (Homo sapiens, UniProt Q9H4B4); details: 500 nM; relative to DMSO; read-out: Residual enzymatic activity
T11 construct: purchased Reaction Biology Corporation
Outline: as §1

[12] = target: T12, MLK1/MAP3K9 (Homo sapiens, UniProt P80192); details: for remaining activity at 0.5 µM: 500 nM, relative to DMSO, read-out: Residual enzymatic activity
T12 construct: purchased Reaction Biology Corporation (assay service)
Outline: as §1

[13] = target: T13, LRRK2 (Homo sapiens, UniProt Q5S007); details: for remaining activity at 0.5 µM: 500 nM, relative to DMSO, read-out: Residual enzymatic activity
T13 construct: purchased Reaction Biology Corporation (assay service)
T13 sequence (Q5S007 whole entry): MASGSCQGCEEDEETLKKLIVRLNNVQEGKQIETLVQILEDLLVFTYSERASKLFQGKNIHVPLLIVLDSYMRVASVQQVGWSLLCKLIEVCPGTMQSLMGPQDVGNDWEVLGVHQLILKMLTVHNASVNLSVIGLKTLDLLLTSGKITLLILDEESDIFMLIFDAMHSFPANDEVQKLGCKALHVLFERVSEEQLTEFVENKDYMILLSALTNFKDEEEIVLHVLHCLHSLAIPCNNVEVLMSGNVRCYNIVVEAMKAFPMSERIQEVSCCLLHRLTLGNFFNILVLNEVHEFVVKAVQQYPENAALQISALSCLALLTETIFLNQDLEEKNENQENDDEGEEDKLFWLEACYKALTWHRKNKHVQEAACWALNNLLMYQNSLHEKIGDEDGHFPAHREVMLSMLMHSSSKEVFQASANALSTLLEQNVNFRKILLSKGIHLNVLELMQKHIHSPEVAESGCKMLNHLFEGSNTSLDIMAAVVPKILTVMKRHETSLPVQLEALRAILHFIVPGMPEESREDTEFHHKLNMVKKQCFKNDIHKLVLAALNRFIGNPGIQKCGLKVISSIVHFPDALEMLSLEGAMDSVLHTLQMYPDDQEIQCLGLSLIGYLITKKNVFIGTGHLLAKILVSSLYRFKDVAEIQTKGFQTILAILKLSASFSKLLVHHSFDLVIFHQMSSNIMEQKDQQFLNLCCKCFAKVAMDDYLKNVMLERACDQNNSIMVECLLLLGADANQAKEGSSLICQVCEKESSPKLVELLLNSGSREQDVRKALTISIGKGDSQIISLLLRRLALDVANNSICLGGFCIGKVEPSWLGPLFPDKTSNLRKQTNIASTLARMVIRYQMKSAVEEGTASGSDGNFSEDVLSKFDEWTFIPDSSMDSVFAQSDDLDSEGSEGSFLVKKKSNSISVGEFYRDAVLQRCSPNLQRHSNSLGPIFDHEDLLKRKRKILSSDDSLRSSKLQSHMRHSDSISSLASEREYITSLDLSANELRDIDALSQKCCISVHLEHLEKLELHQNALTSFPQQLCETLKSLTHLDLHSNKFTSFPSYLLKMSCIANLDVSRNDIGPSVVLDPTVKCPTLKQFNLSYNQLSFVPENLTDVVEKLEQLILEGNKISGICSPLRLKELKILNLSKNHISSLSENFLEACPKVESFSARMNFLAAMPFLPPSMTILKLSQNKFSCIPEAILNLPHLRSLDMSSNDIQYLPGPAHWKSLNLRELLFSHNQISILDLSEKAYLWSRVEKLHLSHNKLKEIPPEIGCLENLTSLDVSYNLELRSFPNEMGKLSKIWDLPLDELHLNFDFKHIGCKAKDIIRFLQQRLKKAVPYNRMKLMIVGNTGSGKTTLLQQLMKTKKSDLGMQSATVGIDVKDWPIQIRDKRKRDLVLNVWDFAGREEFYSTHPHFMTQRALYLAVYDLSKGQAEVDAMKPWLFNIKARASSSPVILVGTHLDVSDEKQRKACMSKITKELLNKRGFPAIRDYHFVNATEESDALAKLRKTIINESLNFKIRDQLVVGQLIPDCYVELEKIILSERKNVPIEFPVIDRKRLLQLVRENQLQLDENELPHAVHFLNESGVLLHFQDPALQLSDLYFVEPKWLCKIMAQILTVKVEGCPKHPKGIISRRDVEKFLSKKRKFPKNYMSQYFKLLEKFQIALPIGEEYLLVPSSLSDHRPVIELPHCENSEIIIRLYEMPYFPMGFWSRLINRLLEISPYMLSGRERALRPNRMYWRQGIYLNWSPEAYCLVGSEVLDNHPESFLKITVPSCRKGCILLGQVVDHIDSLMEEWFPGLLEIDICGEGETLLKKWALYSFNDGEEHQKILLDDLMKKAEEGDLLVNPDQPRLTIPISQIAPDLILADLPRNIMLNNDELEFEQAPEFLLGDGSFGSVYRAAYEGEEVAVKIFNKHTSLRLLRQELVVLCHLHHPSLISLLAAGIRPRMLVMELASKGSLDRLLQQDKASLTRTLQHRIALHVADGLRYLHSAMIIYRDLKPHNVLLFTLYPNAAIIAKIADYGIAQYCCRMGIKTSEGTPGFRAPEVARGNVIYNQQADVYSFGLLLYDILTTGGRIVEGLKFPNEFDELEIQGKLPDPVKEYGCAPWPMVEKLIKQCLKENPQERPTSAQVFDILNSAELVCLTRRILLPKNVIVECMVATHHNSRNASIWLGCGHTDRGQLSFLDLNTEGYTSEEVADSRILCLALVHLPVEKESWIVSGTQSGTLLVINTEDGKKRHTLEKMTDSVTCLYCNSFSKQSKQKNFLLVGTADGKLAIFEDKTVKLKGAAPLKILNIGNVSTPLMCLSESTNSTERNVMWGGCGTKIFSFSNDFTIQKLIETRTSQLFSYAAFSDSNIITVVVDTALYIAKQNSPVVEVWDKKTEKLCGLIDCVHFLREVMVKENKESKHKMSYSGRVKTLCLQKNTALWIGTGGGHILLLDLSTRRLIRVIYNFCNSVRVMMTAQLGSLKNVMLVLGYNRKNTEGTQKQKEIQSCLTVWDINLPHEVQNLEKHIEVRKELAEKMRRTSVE
Outline: as §1

[14] = target: T14, CK1g3 (Homo sapiens, UniProt Q9Y6M4); details: 500 nM; relative to DMSO; read-out: Residual enzymatic activity
T14 construct: purchased Reaction Biology Corporation
Outline: as §1

[15] = target: T15, COT1/MAP3K8 (Homo sapiens, UniProt P41279); details: 500 nM; relative to DMSO; read-out: Residual enzymatic activity
T15 construct: purchased Reaction Biology Corporation
Outline: as §1

[16] = target: T16, CDK16/cyclin Y (Homo sapiens, UniProt Q00536); details: 500 nM; relative to DMSO; read-out: Residual enzymatic activity
T16 construct: purchased Reaction Biology Corporation
Outline: as §1

[17] = target: T17, MYLK3 (Homo sapiens, UniProt Q32MK0); details: 500 nM; relative to DMSO; read-out: Residual enzymatic activity
T17 construct: purchased Reaction Biology Corporation
Outline: as §1

[18] = target: T18, MUSK (Homo sapiens, UniProt O15146); details: 500 nM; relative to DMSO; read-out: Residual enzymatic activity
T18 construct: purchased Reaction Biology Corporation
Outline: as §1

[19] = target: T19, FRK/PTK5 (Homo sapiens, UniProt P42685); details: 500 nM, relative to DMSO; for remaining activity at 0.5 µM: read-out: Residual enzymatic activity
T19 construct: purchased Reaction Biology Corporation
Outline: as §1

[20] = target: T20, TNK1 (Homo sapiens, UniProt Q13470); details: 500 nM; relative to DMSO; read-out: Residual enzymatic activity
T20 construct: purchased Reaction Biology Corporation
Outline: as §1

[21] = target: T21, DMPK (Homo sapiens, UniProt Q09013); details: 500 nM; relative to DMSO; read-out: Residual enzymatic activity
T21 construct: purchased Reaction Biology Corporation
Outline: as §1

[22] = target: T22, CDK7/cyclin H (Homo sapiens, UniProt P50613); details: 500 nM; relative to DMSO; read-out: Residual enzymatic activity
T22 construct: purchased Reaction Biology Corporation
Outline: as §1

[23] = target: T23, MKK4 (Homo sapiens, UniProt P45985); details: 500 nM; relative to DMSO; read-out: Residual enzymatic activity
T23 construct: purchased Reaction Biology Corporation
Outline: as §1

[24] = target: T24, CDK5/p35 (Homo sapiens, UniProt Q00535); details: 500 nM; relative to DMSO; read-out: Residual enzymatic activity
T24 construct: purchased Reaction Biology Corporation
Outline: as §1

[25] = target: T25, PHKg1 (Homo sapiens, UniProt Q16816); details: 500 nM; relative to DMSO; read-out: Residual enzymatic activity
T25 construct: purchased Reaction Biology Corporation
Outline: as §1

[26] = target: T26, GRK2 (Homo sapiens, UniProt P25098); details: 500 nM; relative to DMSO; read-out: Residual enzymatic activity
T26 construct: purchased Reaction Biology Corporation
Outline: as §1

[27] = target: T27, BRSK2 (Homo sapiens, UniProt Q8IWQ3); details: 500 nM; relative to DMSO; read-out: Residual enzymatic activity
T27 construct: purchased Reaction Biology Corporation
Outline: as §1

[28] = target: T28, ULK3 (Homo sapiens, UniProt Q6PHR2); details: 500 nM; relative to DMSO; read-out: Residual enzymatic activity
T28 construct: purchased Reaction Biology Corporation
Outline: as §1

[29] = target: T29, FLT4/VEGFR3 (Homo sapiens, UniProt P35916); details: for remaining activity at 0.5 µM: 500 nM, relative to DMSO, read-out: Residual enzymatic activity
T29 construct: purchased Reaction Biology Corporation (assay service)
T29 sequence (P35916 25-1363): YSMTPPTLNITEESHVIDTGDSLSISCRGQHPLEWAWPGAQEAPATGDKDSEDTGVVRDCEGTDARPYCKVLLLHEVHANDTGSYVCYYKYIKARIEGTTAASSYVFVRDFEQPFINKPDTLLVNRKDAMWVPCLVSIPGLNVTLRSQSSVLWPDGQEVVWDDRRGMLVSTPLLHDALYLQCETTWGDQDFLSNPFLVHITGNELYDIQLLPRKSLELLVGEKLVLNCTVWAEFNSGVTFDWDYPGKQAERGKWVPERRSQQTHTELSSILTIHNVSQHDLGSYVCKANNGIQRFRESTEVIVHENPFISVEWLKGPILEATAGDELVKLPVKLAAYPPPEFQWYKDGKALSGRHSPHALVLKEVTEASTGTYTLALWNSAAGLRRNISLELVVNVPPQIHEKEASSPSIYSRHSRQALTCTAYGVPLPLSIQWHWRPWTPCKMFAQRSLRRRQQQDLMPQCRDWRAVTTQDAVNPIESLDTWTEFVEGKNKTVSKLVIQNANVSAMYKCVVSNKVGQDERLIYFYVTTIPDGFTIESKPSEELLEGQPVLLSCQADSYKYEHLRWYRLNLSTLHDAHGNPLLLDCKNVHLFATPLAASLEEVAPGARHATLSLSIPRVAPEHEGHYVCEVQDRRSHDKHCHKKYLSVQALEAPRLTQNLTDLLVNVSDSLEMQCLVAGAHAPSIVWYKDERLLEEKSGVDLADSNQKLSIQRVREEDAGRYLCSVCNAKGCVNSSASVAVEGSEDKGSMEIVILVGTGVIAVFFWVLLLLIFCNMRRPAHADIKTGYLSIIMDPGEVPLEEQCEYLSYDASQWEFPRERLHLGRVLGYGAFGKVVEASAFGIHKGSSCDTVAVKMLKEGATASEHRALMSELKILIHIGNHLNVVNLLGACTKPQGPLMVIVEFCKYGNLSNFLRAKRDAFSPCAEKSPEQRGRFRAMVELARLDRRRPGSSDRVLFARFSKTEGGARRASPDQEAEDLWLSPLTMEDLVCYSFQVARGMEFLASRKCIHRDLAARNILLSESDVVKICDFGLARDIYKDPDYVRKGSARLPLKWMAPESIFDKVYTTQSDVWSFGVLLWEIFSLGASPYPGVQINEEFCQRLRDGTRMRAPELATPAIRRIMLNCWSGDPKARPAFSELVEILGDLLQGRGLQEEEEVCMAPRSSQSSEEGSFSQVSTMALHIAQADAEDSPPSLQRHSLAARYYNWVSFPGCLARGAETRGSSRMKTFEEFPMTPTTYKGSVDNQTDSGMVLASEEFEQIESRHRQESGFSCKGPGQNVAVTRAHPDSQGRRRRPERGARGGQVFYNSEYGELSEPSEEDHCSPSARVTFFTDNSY
Outline: as §1

[30] = target: T30, DRAK1/STK17A (Homo sapiens, UniProt Q9UEE5); details: 500 nM; relative to DMSO; read-out: Residual enzymatic activity
T30 construct: purchased Reaction Biology Corporation
Outline: as §1

[31] = target: T31, STK38/NDR1 (Homo sapiens, UniProt Q15208); details: 500 nM; relative to DMSO; read-out: Residual enzymatic activity
T31 construct: purchased Reaction Biology Corporation
Outline: as §1

[32] = target: T32, PKCzeta (Homo sapiens, UniProt Q05513); details: read-out: Residual enzymatic activity
T32 construct: purchased Reaction Biology Corporation
Outline: as §1

[33] = target: T33, RSK1 (Homo sapiens, UniProt Q15418); details: 500 nM; relative to DMSO; read-out: Residual enzymatic activity
T33 construct: purchased Reaction Biology Corporation
Outline: as §1

[34] = target: T34, FGFR1 (Homo sapiens, UniProt P11362); details: 500 nM, relative to DMSO
T34 construct: purchased Reaction Biology Corporation
Outline: as §1

[35] = target: T35, PKCepsilon (Homo sapiens, UniProt Q02156); details: 500 nM; relative to DMSO; read-out: Residual enzymatic activity
T35 construct: purchased Reaction Biology Corporation
Outline: as §1

[36] = target: T36, CHK1 (Homo sapiens, UniProt O14757); details: 500 nM; relative to DMSO; read-out: Residual enzymatic activity
T36 construct: purchased Reaction Biology Corporation
Outline: as §1

[37] = target: T37, LIMK2 (Homo sapiens, UniProt P53671); details: 500 nM; relative to DMSO; read-out: Residual enzymatic activity
T37 construct: purchased Reaction Biology Corporation
Outline: as §1

[38] = target: T38, EPHA3 (Homo sapiens, UniProt P29320); details: 500 nM, relative to DMSO
T38 construct: purchased Reaction Biology Corporation
Outline: as §1

[39] = target: T39, MRCKa/CDC42BPA (Homo sapiens, UniProt Q5VT25); details: read-out: Residual enzymatic activity
T39 construct: purchased Reaction Biology Corporation
Outline: as §1

[40] = 10-dose mode, threefold serial dilution from 10 μM
[41] = read-out: Residual enzymatic activity

SMILES: COc1cc(Nc2ncnc(Nc3cc4c(cn3)NC(=O)C(C)(C)O4)n2)cc(OC)c1OC [MT-SYK-03]
- remaining activity at 0.5 µM [1]: 99.7%
- remaining activity at 0.5 µM [2]: 86.6%
- remaining activity at 0.5 µM [3]: 118%
- remaining activity at 0.5 µM [4]: 94%
- remaining activity at 0.5 µM [5]: 103%
- remaining activity at 0.5 µM [6]: 101%
- remaining activity at 0.5 µM ([7]; 500 nM, relative to DMSO): 109%
- remaining activity at 0.5 µM [8]: 93.5%
- remaining activity at 0.5 µM [9]: 7.5%
- IC50 [9, 40]: 0.0043 µM
- inhibition at 0.5 µM ([9]; read-out: Inhibition at 500 nM): > 90%
- remaining activity at 0.5 µM [10]: 70.5%
- remaining activity at 0.5 µM [11]: 97.6%
- remaining activity at 0.5 µM [12]: 21.5%
- IC50 [12, 40]: 0.0078 µM
- remaining activity at 0.5 µM [13]: 48%
- IC50 [13, 40]: 0.206 µM
- remaining activity at 0.5 µM [14]: 72.2%
- remaining activity at 0.5 µM [15]: 90.4%
- remaining activity at 0.5 µM [16]: 95.8%
- remaining activity at 0.5 µM [17]: 95.9%
- remaining activity at 0.5 µM [18]: 79.9%
- Residual enzymatic activity [19]: 56.5%
- remaining activity at 0.5 µM [19]: > 54%
- remaining activity at 0.5 µM [20]: 44.7%
- remaining activity at 0.5 µM [21]: 94.3%
- remaining activity at 0.5 µM [22]: 99.6%
- remaining activity at 0.5 µM [23]: 99.8%
- remaining activity at 0.5 µM [24]: 101%
- remaining activity at 0.5 µM [25]: 97.1%
- remaining activity at 0.5 µM [26]: 101%
- remaining activity at 0.5 µM [27]: 92.5%
- remaining activity at 0.5 µM [28]: 74.9%
- remaining activity at 0.5 µM [29]: 40.4%
- IC50 [29, 40]: 0.0554 µM
- remaining activity at 0.5 µM [30]: 93.6%
- remaining activity at 0.5 µM [31]: 112%
- remaining activity at 0.5 µM ([32]; 500 nM, relative to DMSO): 109%
- remaining activity at 0.5 µM [33]: 105%
- Residual enzymatic activity [34]: 77.5%
- remaining activity at 0.5 µM [35]: 106%
- remaining activity at 0.5 µM [36]: 91.4%
- remaining activity at 0.5 µM [37]: 84.9%
- Residual enzymatic activity [38]: 91.8%
- remaining activity at 0.5 µM ([39]; 500 nM, relative to DMSO): 102%

SMILES: COc1cc(Nc2ncc(F)c(Nc3ccc4c(n3)NC(=O)C(C)(C)O4)n2)cc(OC)c1OC [R406, reference compound]
- remaining activity at 0.5 µM [1]: 45.6%
- remaining activity at 0.5 µM [2]: 54.7%
- remaining activity at 0.5 µM [3]: 99.5%
- remaining activity at 0.5 µM [4]: 53%
- remaining activity at 0.5 µM [5]: 101%
- remaining activity at 0.5 µM [6]: 90.5%
- remaining activity at 0.5 µM [7]: 104%
- remaining activity at 0.5 µM [8]: 92.7%
- remaining activity at 0.5 µM [9]: 1.1%
- remaining activity at 0.5 µM [10]: 41.5%
- remaining activity at 0.5 µM [11]: 53.1%
- remaining activity at 0.5 µM [12]: 6.3%
- remaining activity at 0.5 µM [13]: 5.5%
- remaining activity at 0.5 µM [14]: 79.6%
- remaining activity at 0.5 µM [15]: 100%
- remaining activity at 0.5 µM [16]: 63.3%
- remaining activity at 0.5 µM [17]: 96.4%
- remaining activity at 0.5 µM [18]: 62.1%
- remaining activity at 0.5 µM [19]: 35%
- remaining activity at 0.5 µM [20]: 9.6%
- remaining activity at 0.5 µM [21]: 90.5%
- remaining activity at 0.5 µM [22]: 81.7%
- remaining activity at 0.5 µM [23]: 102%
- remaining activity at 0.5 µM [24]: 82.9%
- remaining activity at 0.5 µM [25]: 61.5%
- remaining activity at 0.5 µM [26]: 97.2%
- remaining activity at 0.5 µM [27]: 84.2%
- remaining activity at 0.5 µM [28]: 20.3%
- remaining activity at 0.5 µM [29]: 4.9%
- remaining activity at 0.5 µM [30]: 43.3%
- remaining activity at 0.5 µM [31]: 70.4%
- remaining activity at 0.5 µM [32]: 105%
- remaining activity at 0.5 µM [33]: 66.9%
- remaining activity at 0.5 µM [34, 41]: 29%
- remaining activity at 0.5 µM [35]: 95%
- remaining activity at 0.5 µM [36]: 78.6%
- remaining activity at 0.5 µM [37]: 77.5%
- remaining activity at 0.5 µM [38, 41]: 85.6%
- remaining activity at 0.5 µM [39]: 104%
